Assay: Drug releasing test of the vaginal ring (shaking water bath, HPLC)
Type: physicochemical
Settings: device of the current invention vs prior art device, FIG. 4 vs FIG. 3 and FIG. 6 vs FIG. 5
Experimental: Drug Releasing Test: Devices used: 1. High Pressure Liquid Chromatography (HPLC). Shimadzu LC-1 OA T • 2. Shaking water bath: HZS-H Process: • 1. Tie the vaginal ring into a big test tube (125 ml). Add 100 ml distilled water into the tube under 37C. Shake the testing tube for 24 hours with shaking rate of 60/minute. Then take the vaginal ring out. • 2. The standard sample is the Mifepristone provided by Shanghai Family Planning Institute. • 3. C-18-[…] Analytic column (Brand: Shimadzu): Pre-set HPLC. The testing conditions are: • Wavelength 310 nm. • Sensitivity: 0.1 AUFS • Speed: 3 Atten. 5 • Flow phase: methanol: water=70:30 • Moving speed=1 ml/minute • Injection amount: 10 μl • Peak time: 5.48 minutes Take 23 μl/ml standard sample, 10 μl injection sample to get the peak area of 656504-656800. Prepare the calibration based on the amount contained in 100 ml.

## C#C[C@]1(O)CC[C@H]2[C@@H]3CCC4=Cc5oncc5C[C@]4(C)[C@H]3CC[C@@]21C [Danazol]
  delivery rate over days, compared with prior art vaginal ring: higher delivery rate of this drug over a longer period of time

## CC#C[C@]1(O)CC[C@H]2[C@@H]3CCC4=CC(=O)CCC4=C3[C@@H](c3ccc(N(C)C)cc3)C[C@@]21C [Mifestone, Mifepristone]
  delivery rate over days, compared with prior art vaginal ring: significantly higher over a longer period of time

— patent US20050197651A1, “Vaginal ring preparation and its application” (priority 2001, published 2005)
